For this assay, the target named is T1, Amylin 3(a) receptor (human calcitonin receptor (CTa) and RAMP-3) (Homo sapiens, UniProt O60896+P30988).
T1 construct: expressed in transfected cells; host or cells: BHK570 cells, stably transfected with a CRE-luciferase reporter
As to the kind of experiment: Luciferase assay (III), BHK Amylin 3(a)//CRE-luc cells. In kind it is cell-based. The following applies: BHK cells with Amylin 3(a) receptor and CRE luciferase reporter, 4 hours incubation; read-out: Potency Luciferase. The procedure, abridged:
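Read-out is CRE-driven luciferase luminescence, taken 30 min after LucLite addition at room temperature. Compounds were incubated 4 h at 37° C in assay medium (10% FBS, 10 mM Hepes, pH 7,4). The cell line is BHK570 co-transfected with human calcitonin receptor CTa and RAMP-3, seeded overnight before use.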
On the technique in general: Reporter assays use an easily measured gene product as a stand-in for the process of interest.

Molecules are shown by their SMILES. *1 amine or outer side, *2 acyl side, *3 side chain or, on linkers, in order; H or OH if unused. Where a SMILES comes first, the peptide text is derived from it. Bridges are numbered along the chain shown (N, C = ends). The star is where a group is joined. C20 diacid = O=C(O)CCCCCCCCCCCCCCCCCCC(=O)*; γGlu = O=C(O)[C@H](CCC(=O)[*:2])N[*:1]; AEEA = NCCOCCOCC(=O)O

T1 sequence (O60896 24-148): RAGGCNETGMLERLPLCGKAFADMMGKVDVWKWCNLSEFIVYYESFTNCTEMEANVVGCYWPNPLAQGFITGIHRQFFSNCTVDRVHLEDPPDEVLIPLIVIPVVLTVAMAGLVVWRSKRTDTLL
T1 sequence (P30988 25-474): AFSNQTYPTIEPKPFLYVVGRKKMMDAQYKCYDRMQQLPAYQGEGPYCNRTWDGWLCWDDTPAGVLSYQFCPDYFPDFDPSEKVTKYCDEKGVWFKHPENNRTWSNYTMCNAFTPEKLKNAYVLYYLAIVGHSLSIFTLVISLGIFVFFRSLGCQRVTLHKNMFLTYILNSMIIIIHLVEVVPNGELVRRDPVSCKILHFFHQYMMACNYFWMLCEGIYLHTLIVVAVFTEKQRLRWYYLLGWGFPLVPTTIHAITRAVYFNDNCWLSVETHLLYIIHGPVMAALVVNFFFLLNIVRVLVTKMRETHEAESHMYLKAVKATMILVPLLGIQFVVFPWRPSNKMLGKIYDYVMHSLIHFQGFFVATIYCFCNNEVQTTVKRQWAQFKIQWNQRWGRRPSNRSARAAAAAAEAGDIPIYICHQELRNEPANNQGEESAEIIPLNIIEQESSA

`CC[C@H](C)[C@H](NC(=O)[C@@H]1CCCN1C(=O)CNC(=O)[C@H](Cc1ccccc1)NC(=O)[C@H](CC(N)=O)NC(=O)[C@H](CC(N)=O)NC(=O)[C@H](CO)NC(=O)[C@H](CO)NC(=O)[C@H](Cc1c[nH]cn1)NC(=O)[C@H](C)NC(=O)[C@H](CC(C)C)NC(=O)[C@H](Cc1ccccc1)NC(=O)[C@H](CC(N)=O)NC(=O)[C@H](C)NC(=O)[C@H](CC(C)C)NC(=O)[C@H](CCCNC(=N)N)NC(=O)[C@H](CCC(N)=O)NC(=O)[C@@H](NC(=O)[C@H](C)NC(=O)[C@@H]1CSSC[C@H](NC(=O)CC[C@H](NC(=O)CCCCCCCCCCCCCCCCCCC(=O)O)C(=O)O)C(=O)N[C@@H](CC(N)=O)C(=O)N[C@@H]([C@@H](C)O)C(=O)N[C@@H](C)C(=O)N[C@@H]([C@@H](C)O)C(=O)N1)[C@@H](C)O)C(=O)N[C@@H](CC(C)C)C(=O)N1CCC[C@H]1C(=O)N1CCC[C@H]1C(=O)N[C@H](C(=O)N[C@@H](CC(N)=O)C(=O)N[C@H](C(=O)NCC(=O)N[C@@H](CO)C(=O)N[C@@H](CC(N)=O)C(=O)N[C@H](C(=O)N[C@@H](Cc1ccc(O)cc1)C(N)=O)[C@@H](C)O)C(C)C)[C@@H](C)O` [Example 12, N-alpha-[(S)-4-Carboxy-4-(19-carboxynonadecanoylamino)butyryl]-[Ala17]-pramlintide (2-37)] ({C20 diacid-γGlu}-CNTATCATQRLANFLAHSSNNFGPILPPTNVGSNTY-NH2; disulfide 1-6): the EC50 turned out to be 0.1 nM. As to `CC[C@H](C)[C@H](NC(=O)[C@@H]1CCCN1C(=O)CNC(=O)[C@H](Cc1ccccc1)NC(=O)[C@H](CC(N)=O)NC(=O)[C@H](CC(N)=O)NC(=O)[C@H](CO)NC(=O)[C@H](CO)NC(=O)[C@H](Cc1c[nH]cn1)NC(=O)[C@H](Cc1c[nH]cn1)NC(=O)[C@H](CC(C)C)NC(=O)[C@H](Cc1ccccc1)NC(=O)[C@H](CC(N)=O)NC(=O)[C@H](C)NC(=O)[C@H](CC(C)C)NC(=O)[C@H](CCCNC(=N)N)NC(=O)[C@H](CCC(N)=O)NC(=O)[C@@H](NC(=O)[C@H](C)NC(=O)[C@@H]1CSSC[C@H](NC(=O)[C@H](CCCCN)NC(=O)[C@H](Cc2c[nH]cn2)NC(=O)CC[C@H](NC(=O)CCCCCCCCCCCCCCCCCCC(=O)O)C(=O)O)C(=O)N[C@@H](CC(N)=O)C(=O)N[C@@H]([C@@H](C)O)C(=O)N[C@@H](C)C(=O)N[C@@H]([C@@H](C)O)C(=O)N1)[C@@H](C)O)C(=O)N[C@@H](CC(C)C)C(=O)N1CCC[C@H]1C(=O)N1CCC[C@H]1C(=O)N[C@H](C(=O)N[C@@H](CC(N)=O)C(=O)N[C@H](C(=O)NCC(=O)N[C@@H](CO)C(=O)N[C@@H](CC(N)=O)C(=O)N[C@H](C(=O)N[C@@H](Cc1ccc(O)cc1)C(N)=O)[C@@H](C)O)C(C)C)[C@@H](C)O` [Example 28, N-alpha-[(S)-4-Carboxy-4-(19-carboxynonadecanoylamino)butyryl]-His-[His17]-pramlintide] ({C20 diacid-γGlu}-HKCNTATCATQRLANFLHHSSNNFGPILPPTNVGSNTY-NH2; disulfide 3-8), the EC50 stood at 0.1 nM. As for `CC[C@H](C)[C@H](NC(=O)[C@@H]1CCCN1C(=O)[C@H](CCC(=O)O)NC(=O)[C@H](Cc1ccccc1)NC(=O)[C@H](CC(N)=O)NC(=O)[C@H](CC(N)=O)NC(=O)[C@H](CO)NC(=O)[C@H](CO)NC(=O)[C@H](Cc1c[nH]cn1)NC(=O)[C@H](Cc1c[nH]cn1)NC(=O)[C@H](CC(C)C)NC(=O)[C@H](Cc1ccccc1)NC(=O)[C@H](CC(N)=O)NC(=O)[C@H](C)NC(=O)[C@H](CC(C)C)NC(=O)[C@H](CCCNC(=N)N)NC(=O)[C@H](CCC(N)=O)NC(=O)[C@@H](NC(=O)[C@H](C)NC(=O)[C@@H]1CSSC[C@H](NC(=O)CC[C@H](NC(=O)CCCCCCCCCCCCCCCCCCC(=O)O)C(=O)O)C(=O)N[C@@H](CC(N)=O)C(=O)N[C@@H]([C@@H](C)O)C(=O)N[C@@H](C)C(=O)N[C@@H]([C@@H](C)O)C(=O)N1)[C@@H](C)O)C(=O)N[C@@H](CC(C)C)C(=O)N1CCC[C@H]1C(=O)N1CCC[C@H]1C(=O)N[C@H](C(=O)N[C@@H](CC(N)=O)C(=O)N[C@H](C(=O)NCC(=O)N[C@@H](CO)C(=O)N[C@@H](CC(N)=O)C(=O)N[C@H](C(=O)N[C@@H](Cc1ccc(O)cc1)C(N)=O)[C@@H](C)O)C(C)C)[C@@H](C)O` [Example 44, N-alpha-[(S)-4-Carboxy-4-(19-carboxynonadecanoylamino)butyryl]-[His17,Glu24]-pramlintide (2-37)] ({C20 diacid-γGlu}-CNTATCATQRLANFLHHSSNNFEPILPPTNVGSNTY-NH2; disulfide 1-6), the EC50 was found to be 0.1 nM. The result for `CC[C@H](C)[C@H](NC(=O)[C@@H]1CCCN1C(=O)CNC(=O)[C@H](Cc1ccccc1)NC(=O)[C@H](CC(N)=O)NC(=O)[C@H](CC(N)=O)NC(=O)[C@H](CO)NC(=O)[C@H](CO)NC(=O)[C@H](Cc1c[nH]cn1)NC(=O)[C@H](C)NC(=O)[C@H](CC(C)C)NC(=O)[C@H](Cc1ccccc1)NC(=O)[C@H](CC(N)=O)NC(=O)[C@H](C)NC(=O)[C@H](CC(C)C)NC(=O)[C@H](CCCNC(=N)N)NC(=O)[C@H](CCC(N)=O)NC(=O)[C@@H](NC(=O)[C@H](C)NC(=O)[C@@H]1CSSC[C@H](NC(=O)[C@H](CCCCN)NC(=O)[C@H](CCCNC(=N)N)NC(=O)COCCOCCNC(=O)CC[C@H](NC(=O)CCCCCCCCCCCCCCCCCCC(=O)O)C(=O)O)C(=O)N[C@@H](CC(N)=O)C(=O)N[C@@H]([C@@H](C)O)C(=O)N[C@@H](C)C(=O)N[C@@H]([C@@H](C)O)C(=O)N1)[C@@H](C)O)C(=O)N[C@@H](CC(C)C)C(=O)N1CCC[C@H]1C(=O)N1CCC[C@H]1C(=O)N[C@H](C(=O)N[C@@H](CC(N)=O)C(=O)N[C@H](C(=O)NCC(=O)N[C@@H](CO)C(=O)N[C@@H](CC(N)=O)C(=O)N[C@H](C(=O)N[C@@H](Cc1ccc(O)cc1)C(N)=O)[C@@H](C)O)C(C)C)[C@@H](C)O` [Example 24, N-alpha-[2-(2-{2-[4-(S)-Carboxy-4-(19-carboxynonadecanoylamino)butyrylamino]ethoxy}ethoxy)acetyl]-Arg-[Ala17]-pramlintide] ({C20 diacid-γGlu-AEEA}-RKCNTATCATQRLANFLAHSSNNFGPILPPTNVGSNTY-NH2; disulfide 3-8) reads 0.08 nM.

On to `CC[C@H](C)[C@H](NC(=O)[C@@H]1CCCN1C(=O)CNC(=O)[C@H](Cc1ccccc1)NC(=O)[C@H](CC(N)=O)NC(=O)[C@H](CCC(N)=O)NC(=O)[C@H](CO)NC(=O)[C@H](CO)NC(=O)[C@H](Cc1c[nH]cn1)NC(=O)[C@H](Cc1c[nH]cn1)NC(=O)[C@H](CC(C)C)NC(=O)[C@H](Cc1ccccc1)NC(=O)[C@H](CC(N)=O)NC(=O)[C@H](C)NC(=O)[C@H](CC(C)C)NC(=O)[C@H](CCCNC(=N)N)NC(=O)[C@H](CCC(N)=O)NC(=O)[C@@H](NC(=O)[C@H](C)NC(=O)[C@@H]1CSSC[C@H](NC(=O)[C@H](CCCNC(=N)N)NC(=O)[C@H](Cc2c[nH]cn2)NC(=O)[C@H](Cc2c[nH]cn2)NC(=O)[C@H](CCC(=O)O)NC(=O)CC[C@H](NC(=O)CCCCCCCCCCCCCCCCCCC(=O)O)C(=O)O)C(=O)N[C@@H](CC(N)=O)C(=O)N[C@@H]([C@@H](C)O)C(=O)N[C@@H](C)C(=O)N[C@@H]([C@@H](C)O)C(=O)N1)[C@@H](C)O)C(=O)N[C@@H](CC(C)C)C(=O)N1CCC[C@H]1C(=O)N1CCC[C@H]1C(=O)N[C@H](C(=O)N[C@@H](CC(N)=O)C(=O)N[C@H](C(=O)NCC(=O)N[C@@H](CO)C(=O)N[C@@H](CC(N)=O)C(=O)N[C@H](C(=O)N[C@@H](Cc1ccc(O)cc1)C(N)=O)[C@@H](C)O)C(C)C)[C@@H](C)O` [Example 63, N-alpha-[(S)-4-Carboxy-4-(19-carboxynonadecanoylamino)butyryl]-GluHis-His-[Arg1,His17,Gln21]-pramlintide] ({C20 diacid-γGlu}-EHHRCNTATCATQRLANFLHHSSQNFGPILPPTNVGSNTY-NH2; disulfide 5-10), for which the EC50 came out at 0.1 nM. To `CC[C@H](C)[C@H](NC(=O)[C@@H]1CCCN1C(=O)CNC(=O)[C@H](Cc1ccccc1)NC(=O)[C@H](CC(N)=O)NC(=O)[C@H](CC(N)=O)NC(=O)[C@H](CO)NC(=O)[C@H](CO)NC(=O)[C@H](Cc1c[nH]cn1)NC(=O)[C@H](Cc1c[nH]cn1)NC(=O)[C@H](CC(C)C)NC(=O)[C@H](Cc1ccccc1)NC(=O)[C@H](CC(N)=O)NC(=O)[C@H](C)NC(=O)[C@H](CC(C)C)NC(=O)[C@H](CCCNC(=N)N)NC(=O)[C@H](CCC(N)=O)NC(=O)[C@@H](NC(=O)[C@H](C)NC(=O)[C@@H]1CSSC[C@H](NC(=O)CC[C@H](NC(=O)CCCCCCCCCCCCCCCCCCC(=O)O)C(=O)O)C(=O)N[C@@H](CC(N)=O)C(=O)N[C@@H]([C@@H](C)O)C(=O)N[C@@H](C)C(=O)N[C@@H]([C@@H](C)O)C(=O)N1)[C@@H](C)O)C(=O)N[C@@H](CC(C)C)C(=O)N1CCC[C@H]1C(=O)N1CCC[C@H]1C(=O)N[C@H](C(=O)N[C@@H](CC(=O)O)C(=O)N[C@H](C(=O)NCC(=O)N[C@@H](CO)C(=O)N[C@@H](CC(N)=O)C(=O)N[C@H](C(=O)N[C@@H](Cc1ccc(O)cc1)C(N)=O)[C@@H](C)O)C(C)C)[C@@H](C)O` [Example 53, N-alpha-[(S)-4-Carboxy-4-(19-carboxynonadecanoylamino)butyryl]-[His17,Asp31]-pramlintide (2-37)] ({C20 diacid-γGlu}-CNTATCATQRLANFLHHSSNNFGPILPPTDVGSNTY-NH2; disulfide 1-6) belongs 0.06 nM.
